# Test results: US20020091086A1, “Peptides that block viral infectivity and methods of use thereof” (priority 1999, published 2002)
# Read-outs that look alike come from different tables or passages of the source. Marks after values point to notes of the source that are not given here.
# Tests used:
# HIV-2 = HIV-2 infectivity assay in H9 cells, RT activity in supernatant; type: cell-based
# SIV = SIV infectivity assay in H9 cells, RT activity in supernatant; type: cell-based
# HIV-1 [1] = settings: H9 cells; for HIV-1 Syncytia: 100 μM; for HIV-1 syncytia formation, result in words: summary of Experiments 1-2
# Description: (§1) In this example, the methods that were used to analyze the ability of various tripeptides to inhibit HIV-1, HIV-2, and SIV replication are disclosed. In Experiments 1 and 2, approximately 200,000 H9 cells were infected with HIV-1, HIV-2 or SIV at 25 TCID50 to test the inhibitory effect of the following synthesized tripeptides LKA-NH2, ILK-NH2, GPQ-NH2, GHK-NH2, GKG-NH2, ACQ-NH2, CQG-NH2, ARV-NH2, KAR-NH2, HKA-NH2, GAT-NH2, KAL-NH2, and GPG-NH2. Accordingly, the H9 cells were resuspended with or without the different peptides (approximately 100 μM) in 1 ml of RPMI 1640 medium supplemented with 10% (v/v) heat-inactivated fetal bovine serum (FBS), penicillin (100 u/ml), and streptomycin (100 u/ml), all available through GIBCO, and Polybrene (2 μg/ml), available through Sigma. Thereafter, viruses were added at 25 TCID50 in a volume of 20-30μl. Cells were incubated with virus at 37° C. for 1 hr then pelleted at 170×g for 7 minutes. The cells were then washed three times in RPMI medium without peptides at room temperature and pelleted at 170×g for 7 minutes, as above. After the final wash, the cells were resuspended in RPMI culture medium containing the peptides in a 24-well plate (Costar corporation) and were kept at 37° C. in 5% CO2 with humidity.
# (§2) Culture supernatants were collected and analyzed when the medium was changed at 4, 7, 10, and 14 days post infection. To monitor the replication of virus, reverse transcriptase (RT) activity in the supernatants was assayed using a commercially available Lenti-RT activity kit. (Cavidi Tech, Uppsala, Sweden). The amount of RT was determined with the aid of a regression line of standards. The results are presented as absorbance values (OD) and higher absorbance indicates a higher protein concentration and greater viral infection. Syncytium formation was also monitored by microscopic examination.
# HIV-1 [2] = settings: H9 cells; for Day 7 RT HIV-1 / Day 10 RT HIV-1: 100 μM; for HIV-1 infection, result in words: summary of Experiments 1-5
# Description: as §1, §2
# In Experiment 3, (Table 4), approximately 200,000 H9 cells were infected with HIV-1, HIV-2 or SIV at 25 TCID50 to test the inhibitory effect of different concentrations of peptides GPG-NH2, GKG-NH2 and CQG-NH2 and combinations of these peptides (the indicated concentration corresponds to the concentration of each tripeptide). As above, H9 cells were resuspended with or without the different peptides at varying concentrations in 1 ml of RPMI 1640 medium supplemented with 10% (v/v) heat-inactivated fetal bovine serum (FBS), penicillin (100 u/ml), and streptomycin (100 u/ml), and Polybrene (2 μg/ml). Thereafter, viruses were added at 25 TCID50 in a volume of 20-30 μl. Cells were incubated with the indicated virus at 37° C. for 1 hr then pelleted at 170×g for 7 minutes. The cells were then washed three times in RPMI medium without peptides at room temperature and pelleted at 170×g for 7 minutes, as above. After the final wash, the cells were resuspended in RPMI culture medium containing the peptides in a 24-well plate (Costar corporation) and kept at 37° C. in 5% CO2 with humidity.
# Culture supernatants were collected when the medium was changed at 4, 7, and 11 days post infection. As above, the replication of each virus was monitored by detecting reverse transcriptase (RT) activity in the supernatants using the Lenti-RT activity kit. (Cavidi Tech). The amount of RT was determined with the aid of a regression line of standards. The results are presented as absorbance values (OD) and higher absorbance indicates a higher protein concentration and greater viral infection.
# In Experiment 4, (Table 5) approximately 200,000 H9 cells were infected with HIV-1 at 25 TCID50 to test the inhibitory effect of different concentrations of peptides GPG-NH2, GKG-NH2 and CQG-NH2 and combinations of these peptides (the indicated concentration corresponds to the total concentration of tripeptide).
Substance,"Day 7 RT HIV-2 (HIV-2; Experiment 1, 100 μM) [OD]","Day 10 RT HIV-2 (HIV-2; Experiment 1, 100 μM) [OD]","Day 7 RT HIV-2 (HIV-2; Experiment 2, 100 μM) [OD]","Day 10 RT HIV-2 (HIV-2; Experiment 2, 100 μM) [OD]","Day 7 RT SIV (SIV; Experiment 1, 100 μM) [OD]","Day 10 RT SIV (SIV; Experiment 1, 100 μM) [OD]","Day 7 RT SIV (SIV; Experiment 2, 100 μM) [OD]","Day 10 RT SIV (SIV; Experiment 2, 100 μM) [OD]",HIV-1 Syncytia (HIV-1 [1]; Experiment 1),HIV-1 Syncytia (HIV-1 [1]; Experiment 2),Day 7 RT HIV-1 (HIV-1 [2]; Experiment 1),Day 10 RT HIV-1 (HIV-1 [2]; Experiment 1) [OD],Day 7 RT HIV-1 (HIV-1 [2]; Experiment 2),Day 10 RT HIV-1 (HIV-1 [2]; Experiment 2) [OD],"HIV-1 infection, result in words (HIV-1 [2])","HIV-1 syncytia formation, result in words (HIV-1 [1])"
Leu-Lys-Ala [LKA-NH2],3.649,2.769,1.689,2.637,3.577,2.452,0.724,2.797,pos,pos,0.568* OD,2.429,0.894* OD,2.989,did not prevent HIV infection,
Ala-Cys-Gln [ACQ-NH2],3.418,2.753,1.661,2.505,1.241,2.746,0.612,2.606,pos,pos,0.117 OD,0.904,0.606 OD,2.831,did not prevent HIV infection,
Lys-Ala-Arg [KAR-NH2],3.419,2.640,1.904,2.742,0.266,1.722,1.034,2.672,pos,pos,0.380 OD,2.779,0.753 OD,2.928,,
Lys-Ala-Leu [KAL-NH2],3.372,2.749,1.757,2.383,1.091,2.524,0.511,2.663,pos,pos,0.246 OD,1.995,0.999 OD,2.791,failed to prevent infection,
Iso-Leu-Lys [ILK-NH2],3.467,2.791,1.692,2.557,3.180,2.255,0.515,2.632,pos,pos,0.365 OD,2.033,0.581 OD,2.950,,
Gly-Pro-Gln [GPQ-NH2],3.692,2.734,1.511,2.382,1.542,2.176,0.574,2.319,pos,pos,0.204 OD,1.965,0.884 OD,2.848,did not prevent HIV infection,failed to prevent infection and HIV-1 syncytia formation
His-Lys-Ala [HKA-NH2],3.408,2.669,1.678,2.560,0.416,2.520,0.455,2.623,pos,pos,0.312 OD,2.546,1.081 OD,2.794,did not prevent HIV infection,
Gly-Ala-Thr [GAT-NH2],3.461,2.835,1.707,2.565,0.892,2.343,0.572,2.776,pos,pos,0.116 OD,1.565,0.776 OD,2.800,failed to prevent infection,failed to prevent infection and HIV-1 syncytia formation
Ala-Arg-Val [ARV-NH2],3.380,3.003,2.237,2.628,0.210,1.172,0.212,3.004,pos,pos,0.156 OD,1.528,0.618 OD,2.829,failed to prevent infection,
